According to PubChem BioAssay (NCI):
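A five-concentration, 48-hour dose response in 96-well plates underlies each endpoint, interpolated linearly between surrounding concentrations. Here, GI50 denotes the concentration required for 50% inhibition of growth. TGI marks complete inhibition of growth.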

Tests used:
Experiment in all cases: NCI tumour cell line growth inhibition, 48 h
LOX IMVI melanoma = tested on: LOX IMVI melanoma
SK-MEL-28 melanoma = tested on: SK-MEL-28 melanoma
OVCAR-5 ovarian = tested on: OVCAR-5 ovarian
HS 578T breast = tested on: HS 578T breast
A498 renal = tested on: A498 renal
PC-3 prostate = tested on: PC-3 prostate
TK-10 renal = tested on: TK-10 renal
UACC-62 melanoma = tested on: UACC-62 melanoma
K-562 leukemia = tested on: K-562 leukemia
MDA-N = tested on: MDA-N

Compound COc1ccccc1N1C(=O)CSC1c1cccc(Oc2ccccc2)c1 (stereo unspecified) has a TGI (LOX IMVI melanoma) of 32.4 µM, a TGI (SK-MEL-28 melanoma) of 34.6 µM and a TGI (OVCAR-5 ovarian) of 50.4 µM. For the same compound, the TGI (HS 578T breast) was 44.5 µM, the TGI (A498 renal) was 36.6 µM and the TGI (PC-3 prostate) was 40 µM. It also gave a TGI (TK-10 renal) of 48.4 µM, a TGI (UACC-62 melanoma) of 30.1 µM and a TGI (K-562 leukemia) of 70.2 µM.

COC1=CC(c2ccc[nH]2)=N/C1=C\c1[nH]c(C)c(CC(=O)NCc2ccccc2)c1C showed a GI50 (A498 renal) of 1.28 µM, a TGI (A498 renal) of 2.71 µM and a GI50 (PC-3 prostate) of 1.1 µM. It also gave a TGI (PC-3 prostate) of 2.6 µM, a GI50 (TK-10 renal) of 1.75 µM and a TGI (TK-10 renal) of 3.24 µM.

In the case of Brc1ccc2nc(-c3cccs3)nc(N3CCN(c4ccccc4)CC3)c2c1, the TGI (LOX IMVI melanoma) is reported as > 100 µM, the TGI (SK-MEL-28 melanoma) is reported as > 100 µM and the TGI (OVCAR-5 ovarian) is reported as > 100 µM. The TGI (HS 578T breast) was > 100 µM, the TGI (A498 renal) was > 100 µM and the TGI (PC-3 prostate) was > 100 µM. The TGI (TK-10 renal) was > 100 µM, the TGI (UACC-62 melanoma) was > 100 µM and the TGI (K-562 leukemia) was > 100 µM.

For CCOC(=O)NC(=O)c1cn(CCN(CCO)C(=O)NCCCCCCNC(=O)N(CCO)CCn2cc(C(=O)NC(=O)OCC)c(=O)[nH]c2=O)c(=O)[nH]c1=O, the TGI (LOX IMVI melanoma) was > 100 µM, the TGI (SK-MEL-28 melanoma) was > 100 µM and the TGI (OVCAR-5 ovarian) was > 100 µM. The TGI (A498 renal) was > 100 µM, the TGI (UACC-62 melanoma) was > 100 µM and the TGI (K-562 leukemia) was > 100 µM.

NS(=O)(=O)c1ccc(N=Nc2ccc(O)cc2)cc1 was tested, and the TGI (LOX IMVI melanoma) was > 100 µM, the TGI (SK-MEL-28 melanoma) was > 100 µM and the TGI (OVCAR-5 ovarian) was > 100 µM. For the same compound, the TGI (MDA-N) was > 100 µM, the TGI (HS 578T breast) was > 100 µM and the TGI (A498 renal) was > 100 µM. The TGI (PC-3 prostate) was > 100 µM, the TGI (TK-10 renal) was > 100 µM and the TGI (K-562 leukemia) was > 100 µM.

CC1=C/C(=N\NS(=O)(=O)c2ccc([N+](=O)[O-])cc2)CC(C)(C)C1 was tested, and the TGI (LOX IMVI melanoma) was > 100 µM, the TGI (SK-MEL-28 melanoma) was > 100 µM and the TGI (OVCAR-5 ovarian) was > 100 µM. For the same compound, the TGI (MDA-N) was > 100 µM, the TGI (A498 renal) was > 100 µM and the TGI (PC-3 prostate) was > 100 µM. The TGI (TK-10 renal) was > 100 µM, the TGI (UACC-62 melanoma) was > 100 µM and the TGI (K-562 leukemia) was > 100 µM.

In the case of N#CC1(C#N)C(=O)c2ccncc2C1=O, the TGI (SK-MEL-28 melanoma) is reported as > 100 µM, the TGI (OVCAR-5 ovarian) is reported as > 100 µM and the TGI (MDA-N) is reported as > 100 µM. For the same compound, the TGI (HS 578T breast) was > 100 µM, the TGI (A498 renal) was > 100 µM and the TGI (PC-3 prostate) was > 100 µM. The TGI (UACC-62 melanoma) was > 100 µM and the TGI (K-562 leukemia) was > 100 µM.

COc1cc(-c2n/c(=C\c3c(O)[nH]c4ccccc34)cc3c2=Nc2ccccc2-3)ccc1F showed a GI50 (LOX IMVI melanoma) of 9.09 µM, a TGI (LOX IMVI melanoma) of 59.7 µM and a GI50 (SK-MEL-28 melanoma) of 6.2 µM. The TGI (SK-MEL-28 melanoma) was 22.6 µM, the GI50 (OVCAR-5 ovarian) was 22.2 µM and the TGI (OVCAR-5 ovarian) was 90.8 µM. For the same compound, the GI50 (HS 578T breast) was 19.7 µM, the TGI (HS 578T breast) was > 100 µM and the GI50 (A498 renal) was 40.4 µM. For the same compound, the TGI (A498 renal) was > 100 µM, the GI50 (PC-3 prostate) was 10.2 µM and the TGI (PC-3 prostate) was 48.8 µM. It also gave a GI50 (TK-10 renal) of 3.89 µM, a TGI (TK-10 renal) of 13 µM and a GI50 (UACC-62 melanoma) of 5.98 µM. The TGI (UACC-62 melanoma) was 21.7 µM, the GI50 (K-562 leukemia) was 5.88 µM and the TGI (K-562 leukemia) was 62.1 µM.

In the case of CN(CCO)CCC1COc2ccccc2O1 (stereo unspecified), the TGI (LOX IMVI melanoma) is reported as > 10 µM, the TGI (SK-MEL-28 melanoma) is reported as > 10 µM and the TGI (OVCAR-5 ovarian) is reported as > 10 µM. The TGI (MDA-N) was > 10 µM, the TGI (HS 578T breast) was > 10 µM and the TGI (A498 renal) was > 10 µM. For the same compound, the TGI (PC-3 prostate) was > 10 µM, the TGI (TK-10 renal) was > 10 µM and the TGI (UACC-62 melanoma) was > 10 µM. For the same compound, the TGI (K-562 leukemia) was > 10 µM.

For O=C(CSc1nc2ccc(I)cc2c(=O)n1Cc1ccccc1)NNC(=S)Nc1ccccc1, the TGI (LOX IMVI melanoma) was > 100 µM, the TGI (SK-MEL-28 melanoma) was > 100 µM and the TGI (OVCAR-5 ovarian) was > 100 µM. The TGI (MDA-N) was > 100 µM, the TGI (HS 578T breast) was > 100 µM and the TGI (A498 renal) was > 100 µM. For the same compound, the TGI (PC-3 prostate) was > 100 µM, the TGI (TK-10 renal) was > 100 µM and the TGI (UACC-62 melanoma) was > 100 µM. The TGI (K-562 leukemia) was > 100 µM.

COc1c(O)cc2c(c1O)C(=O)C(Cc1ccc(O)cc1)CO2 (stereo unspecified) was tested, and the TGI (LOX IMVI melanoma) was > 100 µM, the TGI (SK-MEL-28 melanoma) was > 100 µM and the TGI (OVCAR-5 ovarian) was > 100 µM. The TGI (MDA-N) was > 100 µM, the TGI (HS 578T breast) was > 100 µM and the TGI (A498 renal) was > 100 µM. The TGI (PC-3 prostate) was > 100 µM, the TGI (TK-10 renal) was > 100 µM and the TGI (UACC-62 melanoma) was > 100 µM. For the same compound, the TGI (K-562 leukemia) was > 100 µM.

O=C([O-])c1ccccc1Nc1ccccc1C(=O)[O-].[OH3+].[Zn+2] was tested, and the TGI (LOX IMVI melanoma) was 44.9 µM, the TGI (SK-MEL-28 melanoma) was 40.7 µM and the TGI (OVCAR-5 ovarian) was > 100 µM. For the same compound, the TGI (A498 renal) was 44.7 µM, the TGI (TK-10 renal) was > 100 µM and the TGI (UACC-62 melanoma) was 39.9 µM. For the same compound, the TGI (K-562 leukemia) was 88.7 µM.
